According to US12281080B2, “Quinoline-based compounds and methods of inhibiting CDK8/19” (University of South Carolina, priority 2018, dated 2025):

Tests used:
[1] = target: ABL1(F317I)-nonphosphorylated (Homo sapiens (Human), UniProt P00519, F317I); assay: KINOMEscan scanMAX; format: binding; conditions: 2000 nM; read-out: Percent Control
AKT1 = AKT1 (Homo sapiens (Human), UniProt P31749); assay: KINOMEscan scanMAX; format: binding; conditions: 2000 nM; read-out: Percent Control
ALK = ALK (Homo sapiens (Human), UniProt Q9UM73); assay: KINOMEscan scanMAX; format: binding; conditions: 2000 nM; read-out: Percent Control
AXL = AXL (Homo sapiens (Human), UniProt P30530); assay: KINOMEscan scanMAX; format: binding; conditions: 2000 nM; read-out: Percent Control
AXL, sequence (P30530 26-894): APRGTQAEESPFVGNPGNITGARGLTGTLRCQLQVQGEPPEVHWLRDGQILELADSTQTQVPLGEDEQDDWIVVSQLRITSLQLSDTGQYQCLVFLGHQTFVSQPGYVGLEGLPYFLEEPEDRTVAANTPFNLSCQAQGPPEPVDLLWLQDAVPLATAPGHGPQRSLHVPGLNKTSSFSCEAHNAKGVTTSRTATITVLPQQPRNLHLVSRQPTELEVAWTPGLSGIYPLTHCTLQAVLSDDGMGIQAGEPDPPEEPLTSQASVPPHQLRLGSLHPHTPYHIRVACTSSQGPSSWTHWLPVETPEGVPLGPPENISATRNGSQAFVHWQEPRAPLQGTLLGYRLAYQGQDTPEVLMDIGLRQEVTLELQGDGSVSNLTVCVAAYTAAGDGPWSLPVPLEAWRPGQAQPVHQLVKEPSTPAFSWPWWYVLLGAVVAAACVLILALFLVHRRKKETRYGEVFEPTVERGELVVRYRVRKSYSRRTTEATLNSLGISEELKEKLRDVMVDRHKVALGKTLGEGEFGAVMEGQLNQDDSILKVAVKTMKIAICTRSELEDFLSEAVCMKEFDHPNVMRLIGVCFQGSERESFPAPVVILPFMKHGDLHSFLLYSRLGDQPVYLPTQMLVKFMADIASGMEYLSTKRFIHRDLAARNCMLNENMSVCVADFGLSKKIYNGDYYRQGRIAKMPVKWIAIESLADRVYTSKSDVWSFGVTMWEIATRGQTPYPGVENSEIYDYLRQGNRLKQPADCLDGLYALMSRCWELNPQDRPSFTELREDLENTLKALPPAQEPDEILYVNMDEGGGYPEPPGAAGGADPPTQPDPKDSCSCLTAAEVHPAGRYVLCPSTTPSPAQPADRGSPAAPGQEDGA

BLK = BLK (Homo sapiens (Human), UniProt P51451); assay: KINOMEscan scanMAX; format: binding; conditions: 2000 nM; read-out: Percent Control
CAMK2B = CAMK2B (Homo sapiens (Human), UniProt Q13554); assay: KINOMEscan scanMAX; format: binding; conditions: 2000 nM; read-out: Percent Control
CAMK2B, sequence (Q13554 whole entry): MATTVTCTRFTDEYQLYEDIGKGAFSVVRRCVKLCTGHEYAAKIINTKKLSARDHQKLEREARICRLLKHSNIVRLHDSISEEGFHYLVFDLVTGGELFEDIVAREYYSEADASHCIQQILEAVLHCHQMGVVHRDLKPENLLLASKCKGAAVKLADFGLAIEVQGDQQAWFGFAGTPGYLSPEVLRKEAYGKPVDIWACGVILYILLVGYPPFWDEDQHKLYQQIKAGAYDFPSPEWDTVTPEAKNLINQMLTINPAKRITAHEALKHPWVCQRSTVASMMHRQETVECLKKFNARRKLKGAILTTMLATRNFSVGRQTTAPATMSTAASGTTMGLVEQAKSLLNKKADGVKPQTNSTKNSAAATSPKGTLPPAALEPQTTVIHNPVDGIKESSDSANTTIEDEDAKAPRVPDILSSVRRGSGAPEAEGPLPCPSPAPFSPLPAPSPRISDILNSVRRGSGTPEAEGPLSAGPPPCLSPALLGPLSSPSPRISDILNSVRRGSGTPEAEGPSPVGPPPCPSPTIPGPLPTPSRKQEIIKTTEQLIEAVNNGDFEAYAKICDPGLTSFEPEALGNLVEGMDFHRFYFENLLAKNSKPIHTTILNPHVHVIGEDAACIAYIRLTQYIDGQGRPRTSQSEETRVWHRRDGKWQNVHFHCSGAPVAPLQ

CDC2L2 = CDC2L2 (Homo sapiens (Human), UniProt Q9UQ88); assay: KINOMEscan scanMAX; format: binding; conditions: 2000 nM; read-out: Percent Control
CDK4-cyclinD1 = CDK4-cyclinD1 (Homo sapiens (Human), UniProt P11802); assay: KINOMEscan scanMAX; format: binding; conditions: 2000 nM; read-out: Percent Control
CDK5 = CDK5 (Homo sapiens (Human), UniProt Q00535); assay: KINOMEscan scanMAX; format: binding; conditions: 2000 nM; read-out: Percent Control
CDK8 [2] = target: T1, CDK8 (Homo sapiens (Human), UniProt P49336); assay: KINOMEscan scanMAX; format: binding; conditions: 2000 nM; read-out: Percent Control
T1 sequence (P49336 whole entry): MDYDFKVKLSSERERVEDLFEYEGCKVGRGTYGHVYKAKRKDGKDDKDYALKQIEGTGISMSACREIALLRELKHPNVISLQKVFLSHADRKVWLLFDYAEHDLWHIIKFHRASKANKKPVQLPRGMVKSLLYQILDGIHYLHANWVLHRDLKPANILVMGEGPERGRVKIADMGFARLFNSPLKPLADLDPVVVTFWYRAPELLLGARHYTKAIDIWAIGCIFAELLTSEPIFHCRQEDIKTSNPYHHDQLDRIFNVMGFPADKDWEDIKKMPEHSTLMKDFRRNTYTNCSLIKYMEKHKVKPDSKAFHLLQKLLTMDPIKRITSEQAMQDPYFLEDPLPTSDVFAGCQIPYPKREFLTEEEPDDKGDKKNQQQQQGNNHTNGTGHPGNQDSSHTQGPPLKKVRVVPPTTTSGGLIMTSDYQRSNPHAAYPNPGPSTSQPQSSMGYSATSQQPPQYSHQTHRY

DCAMKL2 (DCLK2) = DCAMKL2 (DCLK2) (Homo sapiens (Human), UniProt Q8N568); assay: KINOMEscan scanMAX; format: binding; conditions: 2000 nM; read-out: Percent Control
EGFR(G719C) = EGFR(G719C) (Homo sapiens (Human), UniProt P00533, G719C); assay: KINOMEscan scanMAX; format: binding; conditions: 2000 nM; read-out: Percent Control
EGFR(L861Q) = EGFR(L861Q) (Homo sapiens (Human), UniProt P00533, L861Q); assay: KINOMEscan scanMAX; format: binding; conditions: 2000 nM; read-out: Percent Control
EPHA1 = EPHA1 (Homo sapiens (Human), UniProt P21709); assay: KINOMEscan scanMAX; format: binding; conditions: 2000 nM; read-out: Percent Control
FLT3(R834Q) = FLT3(R834Q) (Homo sapiens (Human), UniProt P36888, R834Q); assay: KINOMEscan scanMAX; format: binding; conditions: 2000 nM; read-out: Percent Control
[3] = target: GCN2(Kin.Dom.2, S808G) (EIF2AK4) (Homo sapiens (Human), UniProt Q9P2K8, S808G); assay: KINOMEscan scanMAX; format: binding; conditions: 2000 nM; read-out: Percent Control
IGF1R = IGF1R (Homo sapiens (Human), UniProt P08069); assay: KINOMEscan scanMAX; format: binding; conditions: 2000 nM; read-out: Percent Control
MAP3K3 = MAP3K3 (Homo sapiens (Human), UniProt Q99759); assay: KINOMEscan scanMAX; format: binding; conditions: 2000 nM; read-out: Percent Control
MAP3K3, sequence (Q99759 whole entry): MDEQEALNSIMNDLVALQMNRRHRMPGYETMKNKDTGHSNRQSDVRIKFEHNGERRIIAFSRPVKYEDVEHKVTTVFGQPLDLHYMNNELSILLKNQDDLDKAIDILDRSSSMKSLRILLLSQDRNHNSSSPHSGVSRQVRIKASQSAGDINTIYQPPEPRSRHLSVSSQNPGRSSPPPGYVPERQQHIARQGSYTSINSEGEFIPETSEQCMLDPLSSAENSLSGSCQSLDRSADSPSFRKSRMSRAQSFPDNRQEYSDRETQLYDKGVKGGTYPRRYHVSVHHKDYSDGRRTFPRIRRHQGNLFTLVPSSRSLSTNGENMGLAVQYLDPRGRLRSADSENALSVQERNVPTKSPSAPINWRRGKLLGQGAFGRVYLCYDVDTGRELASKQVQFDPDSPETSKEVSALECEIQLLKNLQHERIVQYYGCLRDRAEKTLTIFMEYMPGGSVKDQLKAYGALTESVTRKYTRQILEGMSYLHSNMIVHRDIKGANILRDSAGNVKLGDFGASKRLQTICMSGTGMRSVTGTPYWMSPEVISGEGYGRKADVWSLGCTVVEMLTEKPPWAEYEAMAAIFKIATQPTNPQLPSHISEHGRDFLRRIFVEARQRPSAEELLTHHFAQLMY

MARK3 = MARK3 (Homo sapiens (Human), UniProt P27448); assay: KINOMEscan scanMAX; format: binding; conditions: 2000 nM; read-out: Percent Control
NIM1 (MGC42105) = NIM1 (MGC42105) (Homo sapiens (Human), UniProt Q8IY84); assay: KINOMEscan scanMAX; format: binding; conditions: 2000 nM; read-out: Percent Control
PAK1 = PAK1 (Homo sapiens (Human), UniProt Q13153); assay: KINOMEscan scanMAX; format: binding; conditions: 2000 nM; read-out: Percent Control
PAK7 = PAK7 (Homo sapiens (Human), UniProt Q9P286); assay: KINOMEscan scanMAX; format: binding; conditions: 2000 nM; read-out: Percent Control
PAK7, sequence (Q9P286 whole entry): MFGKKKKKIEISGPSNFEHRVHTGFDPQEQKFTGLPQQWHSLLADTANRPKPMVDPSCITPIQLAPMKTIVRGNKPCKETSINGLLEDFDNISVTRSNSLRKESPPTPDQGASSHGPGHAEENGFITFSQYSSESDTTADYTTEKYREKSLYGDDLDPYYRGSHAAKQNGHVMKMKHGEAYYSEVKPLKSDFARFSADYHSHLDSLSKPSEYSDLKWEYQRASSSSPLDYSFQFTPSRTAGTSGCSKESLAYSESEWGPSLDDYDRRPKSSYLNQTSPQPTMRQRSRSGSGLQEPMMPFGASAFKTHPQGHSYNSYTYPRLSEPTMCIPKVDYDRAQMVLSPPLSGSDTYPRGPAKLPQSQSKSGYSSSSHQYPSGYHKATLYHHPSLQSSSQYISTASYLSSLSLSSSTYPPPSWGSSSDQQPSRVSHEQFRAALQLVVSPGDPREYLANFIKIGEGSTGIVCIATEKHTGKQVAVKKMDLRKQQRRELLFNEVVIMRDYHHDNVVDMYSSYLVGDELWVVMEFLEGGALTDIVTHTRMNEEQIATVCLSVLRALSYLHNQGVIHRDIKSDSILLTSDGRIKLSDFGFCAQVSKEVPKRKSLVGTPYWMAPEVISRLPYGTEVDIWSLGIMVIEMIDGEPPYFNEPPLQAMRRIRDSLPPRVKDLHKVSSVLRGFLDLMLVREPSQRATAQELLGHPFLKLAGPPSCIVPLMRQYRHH

PCTK3 (CDK18) = PCTK3 (CDK18) (Homo sapiens (Human), UniProt Q07002); assay: KINOMEscan scanMAX; format: binding; conditions: 2000 nM; read-out: Percent Control
[4] = target: PFCDPK1(P.falciparum) (CDPK1) (Plasmodium falciparum (isolate 3D7), UniProt P62344); assay: KINOMEscan scanMAX; format: binding; conditions: 2000 nM; read-out: Percent Control
PIK3CA(C420R) = PIK3CA(C420R) (Homo sapiens (Human), UniProt P42336, C420R); assay: KINOMEscan scanMAX; format: binding; conditions: 2000 nM; read-out: Percent Control
PIP5K2C (PIP4K2C) = PIP5K2C (PIP4K2C) (Homo sapiens (Human), UniProt Q8TBX8); assay: KINOMEscan scanMAX; format: binding; conditions: 2000 nM; read-out: Percent Control
PKN2 = PKN2 (Homo sapiens (Human), UniProt Q16513); assay: KINOMEscan scanMAX; format: binding; conditions: 2000 nM; read-out: Percent Control
PRKCE = PRKCE (Homo sapiens (Human), UniProt Q02156); assay: KINOMEscan scanMAX; format: binding; conditions: 2000 nM; read-out: Percent Control
PRKCE, sequence (Q02156 whole entry): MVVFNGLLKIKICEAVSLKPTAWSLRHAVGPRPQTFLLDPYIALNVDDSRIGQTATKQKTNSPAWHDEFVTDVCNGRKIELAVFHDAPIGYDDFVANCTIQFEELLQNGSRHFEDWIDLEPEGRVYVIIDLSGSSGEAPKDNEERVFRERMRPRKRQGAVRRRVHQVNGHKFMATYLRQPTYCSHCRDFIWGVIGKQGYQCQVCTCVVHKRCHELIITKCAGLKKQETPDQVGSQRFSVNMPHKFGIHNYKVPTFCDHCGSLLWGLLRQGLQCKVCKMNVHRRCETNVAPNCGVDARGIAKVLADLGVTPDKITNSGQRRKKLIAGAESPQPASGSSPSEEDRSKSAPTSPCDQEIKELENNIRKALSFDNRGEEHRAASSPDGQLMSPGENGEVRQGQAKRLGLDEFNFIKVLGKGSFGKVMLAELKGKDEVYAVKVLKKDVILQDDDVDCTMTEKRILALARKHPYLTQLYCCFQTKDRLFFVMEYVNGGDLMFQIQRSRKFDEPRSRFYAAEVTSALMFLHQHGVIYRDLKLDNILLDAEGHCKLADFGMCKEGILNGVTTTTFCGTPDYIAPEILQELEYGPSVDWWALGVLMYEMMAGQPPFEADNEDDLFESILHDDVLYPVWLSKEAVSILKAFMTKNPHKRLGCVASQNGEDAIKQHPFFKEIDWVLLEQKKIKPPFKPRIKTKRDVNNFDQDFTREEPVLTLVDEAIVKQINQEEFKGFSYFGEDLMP

PRKD3 = PRKD3 (Homo sapiens (Human), UniProt O94806); assay: KINOMEscan scanMAX; format: binding; conditions: 2000 nM; read-out: Percent Control
PRKX = PRKX (Homo sapiens (Human), UniProt P51817); assay: KINOMEscan scanMAX; format: binding; conditions: 2000 nM; read-out: Percent Control
PRP4 (PRPF4B) = PRP4 (PRPF4B) (Homo sapiens (Human), UniProt Q13523); assay: KINOMEscan scanMAX; format: binding; conditions: 2000 nM; read-out: Percent Control
SGK (SGK1) = SGK (SGK1) (Homo sapiens (Human), UniProt O00141); assay: KINOMEscan scanMAX; format: binding; conditions: 2000 nM; read-out: Percent Control
SRPK3 = SRPK3 (Homo sapiens (Human), UniProt Q9UPE1); assay: KINOMEscan scanMAX; format: binding; conditions: 2000 nM; read-out: Percent Control
TEC = TEC (Homo sapiens (Human), UniProt P42680); assay: KINOMEscan scanMAX; format: binding; conditions: 2000 nM; read-out: Percent Control
TESK1 = TESK1 (Homo sapiens (Human), UniProt Q15569); assay: KINOMEscan scanMAX; format: binding; conditions: 2000 nM; read-out: Percent Control
TIE2 (TEK) = TIE2 (TEK) (Homo sapiens (Human), UniProt Q02763); assay: KINOMEscan scanMAX; format: binding; conditions: 2000 nM; read-out: Percent Control
VPS34 (PIK3C3) = VPS34 (PIK3C3) (Homo sapiens (Human), UniProt Q8NEB9); assay: KINOMEscan scanMAX; format: binding; conditions: 2000 nM; read-out: Percent Control
VPS34 (PIK3C3), sequence (Q8NEB9 whole entry): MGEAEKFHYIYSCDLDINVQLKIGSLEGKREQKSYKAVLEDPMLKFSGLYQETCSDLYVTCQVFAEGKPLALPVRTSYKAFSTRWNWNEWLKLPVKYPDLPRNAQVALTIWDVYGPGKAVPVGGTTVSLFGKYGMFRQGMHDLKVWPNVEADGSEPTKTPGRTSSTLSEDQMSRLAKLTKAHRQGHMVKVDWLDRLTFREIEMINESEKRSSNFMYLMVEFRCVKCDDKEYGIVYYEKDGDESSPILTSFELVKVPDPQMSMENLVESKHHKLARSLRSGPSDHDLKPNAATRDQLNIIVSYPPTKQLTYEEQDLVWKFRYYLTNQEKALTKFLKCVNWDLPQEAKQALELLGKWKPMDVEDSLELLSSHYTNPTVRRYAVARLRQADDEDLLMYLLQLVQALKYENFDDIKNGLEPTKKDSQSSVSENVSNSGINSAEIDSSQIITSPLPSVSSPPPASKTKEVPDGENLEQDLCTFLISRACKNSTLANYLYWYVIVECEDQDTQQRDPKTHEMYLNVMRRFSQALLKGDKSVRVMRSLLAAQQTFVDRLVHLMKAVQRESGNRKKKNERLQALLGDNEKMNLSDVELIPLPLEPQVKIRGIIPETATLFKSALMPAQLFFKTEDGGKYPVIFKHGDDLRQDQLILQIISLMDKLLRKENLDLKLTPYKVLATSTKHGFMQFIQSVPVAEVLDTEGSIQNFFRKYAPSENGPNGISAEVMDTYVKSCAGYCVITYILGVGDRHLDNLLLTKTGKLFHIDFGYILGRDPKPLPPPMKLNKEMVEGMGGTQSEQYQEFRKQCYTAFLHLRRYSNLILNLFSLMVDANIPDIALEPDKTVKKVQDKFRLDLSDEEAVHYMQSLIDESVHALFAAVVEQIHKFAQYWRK

ZAK = ZAK (Homo sapiens (Human), UniProt Q9NYL2); assay: KINOMEscan scanMAX; format: binding; conditions: 2000 nM; read-out: Percent Control
CDK8 [5] = target: T1, CDK8; assay: DiscoverX Kd assay

CN1CCN(C(=O)c2ccc3cc(CCNc4ccnc5ccc(C#N)cc45)ccc3c2)CC1 [compound 6148, 4-((2-(6-(4-methylpiperazine-1-carbonyl)naphthalen-2-yl)ethyl)amino)quinoline-6-carbonitrile]
remaining binding at 2 µM [1]: 88%
remaining binding at 2 µM (AKT1): 89%
remaining binding at 2 µM (ALK): 89%
remaining binding at 2 µM (AXL): 95%
remaining binding at 2 µM (BLK): 100%
remaining binding at 2 µM (CAMK2B): 97%
remaining binding at 2 µM (CDC2L2): 97%
remaining binding at 2 µM (CDK4-cyclinD1): 83%
remaining binding at 2 µM (CDK5): 100%
remaining binding at 2 µM (CDK8 [2]): 1.3%
remaining binding at 2 µM (DCAMKL2 (DCLK2)): 94%
remaining binding at 2 µM (EGFR(G719C)): 93%
remaining binding at 2 µM (EGFR(L861Q)): 64%
remaining binding at 2 µM (EPHA1): 93%
remaining binding at 2 µM (FLT3(R834Q)): 70%
remaining binding at 2 µM [3]: 93%
remaining binding at 2 µM (IGF1R): 94%
remaining binding at 2 µM (MAP3K3): 83%
remaining binding at 2 µM (MARK3): 94%
remaining binding at 2 µM (NIM1 (MGC42105)): 67%
remaining binding at 2 µM (PAK1): 92%
remaining binding at 2 µM (PAK7): 100%
remaining binding at 2 µM (PCTK3 (CDK18)): 97%
remaining binding at 2 µM [4]: 83%
remaining binding at 2 µM (PIK3CA(C420R)): 73%
remaining binding at 2 µM (PIP5K2C (PIP4K2C)): 84%
remaining binding at 2 µM (PKN2): 89%
remaining binding at 2 µM (PRKCE): 98%
remaining binding at 2 µM (PRKD3): 100%
remaining binding at 2 µM (PRKX): 100%
remaining binding at 2 µM (PRP4 (PRPF4B)): 71%
remaining binding at 2 µM (SGK (SGK1)): 50%
remaining binding at 2 µM (SRPK3): 96%
remaining binding at 2 µM (TEC): 100%
remaining binding at 2 µM (TESK1): 96%
remaining binding at 2 µM (TIE2 (TEK)): 89%
remaining binding at 2 µM (VPS34 (PIK3C3)): 68%
remaining binding at 2 µM (ZAK): 94%
Kd (CDK8 [5]): 0.055 µM
